# Measurements taken from US20230382920A1, “SHMT Inhibitors” (The Trustees of Princeton University, priority 2020, published 2023).
# Structures can show the parent of a compound that is named as a salt. Where two headings read alike, the source gives them in different places.
# Assays:
# [1] = Mouse liver microsome assay (metabolic stability); type: in vitro ADME; conditions: mouse liver microsomes; for half-life at 2 µM: in vitro half-life; for microsomal CLint at 2 µM: in vitro intrinsic clearance, read-out: Relative Clint
# Protocol: Example 6. Mouse Liver Microsome Assay
# Metabolic stability of several compounds in mouse liver microsomes was tested. Briefly, a master solution was prepared according to Table 31.
# Two separate experiments were performed: an experiment with cofactors and an experiment without cofactors. In the experiment with cofactors 40 μL of 10 mM NADPH and 40 μL of 20 mM UDPGA were added to the incubations. The final concentrations of microsomes, NADPH and UDPGA were 0.5 mg/mL, 1 mM and 2 mM, respectively. In the experiment without cofactors 10 μL of 20 mg/mL liver microsomes and 80 μL of ultra-pure H2O were added to the incubations. The final concentration of microsomes was 0.5 mg/mL. The mixture was pre-warmed at 37° C. for 5 minutes.
# The reaction was started with the addition of 4 μL of 200 μM control compound or test compound solutions. Verapamil was used as positive control in this study. The final concentration of test compound was 2 μM and the final concentration of control compound was 1 μM. The incubation solution was incubated in water bath at 37° C.
# Aliquots of 50 μL were taken from the reaction solution at 0.5, 5, 15, 30, 45 and 60 minutes. The reaction was stopped by the addition of five volumes of cold acetonitrile with IS (100 nM alprazolam, 200 nM caffeine and 100 nM tolbutamide). Samples were centrifuged at 3,220 g for 40 minutes. Aliquot of 100 μL of the supernatant was mixed with 100 μL of ultra-pure H2O and then subject to LC-MS/MS analysis.
# All calculations were carried out using Microsoft Excel. Peak areas were determined from extracted ion chromatograms. The slope value, k, was determined by linear regression of the natural logarithm of the remaining percentage of the parent drug versus incubation time curve. The in vitro half-life (in vitro t½) was determined from the slope value:
# Conversion of the in vitro t1/2(min) into the in vitro intrinsic clearance (in vitro CLint, in μL/min/mg protein) was done using the following equation (mean of duplicate determinations): […]
# [2] = system: HCT116; assay: HCT116 growth inhibition assay; type: cell-based; conditions: without formate
# Protocol: (§1) Example 5. HCT116 Growth Inhibition and Formate Rescue Assays
# (§2) 3,000 Cells were plated in each well of a 96-well plate with 80 μL of DMEM media supplemented with 10% dFBS, and incubated for 24 hours. Drugs with or without sodium formate (1 mM) were then added to each well to a final volume of 100 μL. Cell growth was measured as fluorescence intensity by resazurin after four days. In short, resazurin was added to each well to a final concentration of 10 μg·mL^−1. After incubation for one hour, fluorescence was measured by a Synergy HT plate reader (BioTek Instruments).
# [3] = system: HCT116; assay: HCT116 formate rescue assay (with sodium formate 1 mM); type: cell-based; conditions: Homo sapiens, HCT-116, 96 h, HCT116 growth
# Protocol: as §1, §2
# [4] = Pharmacokinetics study of KDG-0320-0A in male CD1 mice (Example 1); type: in vivo; conditions: for F: bioavailability vs 1 mg/kg IV; for MRT inf: read-out: MRTInf_obs
# Protocol: A standard pharmacokinetic (PK) study of KDG-0320-0A was performed in male CD1 mice dosed with a single oral, intravenous or intraperitoneal dose of KDG-0320-0A. The parameters of the PK study are described in Table 2. Dosing solutions were freshly made prior to use. […] For IV, PO and IP, after collection, plasma samples from the same time point were pooled, and the pooled samples were analyzed by LC/MS/MS.
# The desired serial concentrations of working solutions were achieved by diluting stock solution of analyte with 50% acetonitrile in water solution. 5 μL of working solutions (2, 4, 10, 20, 100, 200, 1000, 2000 ng/mL) were added to 10 μL of blank CD1 mouse plasma to achieve calibration standards of 1-1000 ng/mL (1, 2, 5, 10, 50, 100, 500, 1000 ng/mL) in a total volume of 15 μL. Four quality control (QC) samples at 2 ng/mL, 5 ng/mL, 50 ng/mL and 800 ng/mL for plasma were prepared independently of those used for the calibration curves. These QC samples were prepared on the day of analysis in the same way as calibration standards.
# 15 μL standards, 15 μL QC samples and 15 μL unknown samples from the blood sampling (10 μL plasma with 5 μL blank solution) were added to 200 μL of acetonitrile containing IS mixture for precipitating protein. Then, the samples were vortexed for 30 seconds. After centrifugation at 4 degrees Celsius, 4000 rpm for 15 minutes, the supernatant was diluted three times with water. 15 μL of diluted supernatant was injected into the LC/MS/MS system for quantitative analysis.
# BLOQ=Below quantifiable limit of 1 ng/mL. PK parameters were estimated by non-compartmental model using WinNonlin 6.1. The PO bioavailability (F %) was calculated as following:
# AUClast-PO/AUCINF-PO>80%: F=(AUCINF-PO*DoseIV)/(mean AUCINF-IV*DosePO) AUClast-PO/AUCINF-PO≤80% or AUCINF was not available: F=(AUClast-PO*DoseIV)/(mean AUClast-IV*DosePO).
# The IP bioavailability (F %) was calculated as following:
# AUClast-IP/AUCINF-IP>80%: F=(AUCINF-IP*DoseIV)/(mean AUCINF-IV*DoseIP) AUClast-IP/AUCINF-IP≤80% or AUCINF was not available: F=(AUClast-IP*DoseIV)/(mean AUClast-IV*DoseIP).
# [5] = mouse, plasma, 1 mg/kg IV, read-out: Concentration IV_Mean
# [6] = mouse, plasma, 30 mg/kg IP, read-out: Concentration IP_Mean
# [7] = mouse, plasma, 50 mg/kg PO, read-out: Concentration PO_Mean
structure (smiles),measurement,setting,value
"Cc1n[nH]c2c1C(c1cc(C#CC3CN(C(=O)OC(C)(C)C)C3)cc(CO)c1)(C(C)C)C(C#N)=C(N)O2 (centres unmarked) [KDG-0271, tert-butyl 3-[2-(3-[6-amino-5-cyano-4-isopropyl-3-methyl-1H-pyrano[2,3-c]pyrazol-4-yl]-5-(hydroxymethyl)phenyl)ethynyl]azetidine-1-carboxylate]",half-life at 2 µM,[1],0.167 to 0.333 h
same,microsomal CLint at 2 µM,[1],70 to 100 µL/min/mg
same,IC50,[2],A″
same,IC50,[3],> 5 µM
"Cc1n[nH]c2c1C(c1cc(C#C[C@H]3CC[C@H](NC(=O)OC(C)(C)C)CC3)cc(CO)c1)(C(C)C)C(C#N)=C(N)O2 (some centres unmarked) [KDG-0320, tert-butyl N-[(1r,4r)-4-[2-(3-[6-amino-5-cyano-4-isopropyl-3-methyl-1H-pyrano[2,3-c]pyrazol-4-yl]-5-(hydroxymethyl)phenyl)ethynyl]cyclohexyl]carbamate hydrochloride]",half-life at 2 µM,[1],≥ 0.333 h
same,microsomal CLint at 2 µM,[1],≤ 70 µL/min/mg
same,IC50,[2],B″
same,IC50,[3],< 0.1 µM
same,AUC_%Extrap_obs,[4]; 1 mg/kg IV,2.88%
same,AUClast/D,[4]; 1 mg/kg IV,155 kg·ng·h/mL/mg
same,Cl_obs,[4]; 1 mg/kg IV,104 mL/min/kg
same,Vss_obs,[4]; 1 mg/kg IV,3.96 L/kg
same,AUC_%Extrap_obs,[4]; 30 mg/kg IP,1.41%
same,AUClast/D,[4]; 30 mg/kg IP,258 kg·ng·h/mL/mg
same,F,[4]; 30 mg/kg IP,164%
same,AUC_%Extrap_obs,[4]; 50 mg/kg PO,1.77%
same,AUClast/D,[4]; 50 mg/kg PO,32.5 kg·ng·h/mL/mg
same,F,[4]; 50 mg/kg PO,20.8%
same,AUC(0-inf),"[4]; mouse, plasma, 1 mg/kg IV",160 ng·h/mL
same,AUC(0-t),"[4]; mouse, plasma, 1 mg/kg IV",155 ng·h/mL
same,C0,"[4]; mouse, plasma, 1 mg/kg IV",575 ng/mL
same,half-life,"[4]; mouse, plasma, 1 mg/kg IV",1.04 h
same,concentration at 0.083 h,"[4]; mouse, plasma, 1 mg/kg IV, 0.083 h, read-out: Concentration IV_Mean",363 ng/mL
same,concentration at 0.25 h,[4]; [5],144 ng/mL
same,concentration at 0.5 h,[4]; [5],60.2 ng/mL
same,concentration at 1 h,[4]; [5],25.7 ng/mL
same,concentration at 2 h,[4]; [5],7.16 ng/mL
same,concentration at 4 h,[4]; [5],3.07 ng/mL
same,MRT inf,"[4]; mouse, plasma, 1 mg/kg IV",0.632 h
same,AUC(0-inf),"[4]; mouse, plasma, 30 mg/kg IP",7840 ng·h/mL
same,AUC(0-t),"[4]; mouse, plasma, 30 mg/kg IP",7730 ng·h/mL
same,Cmax,"[4]; mouse, plasma, 30 mg/kg IP",7460 ng/mL
same,Tmax,"[4]; mouse, plasma, 30 mg/kg IP",0.25 h
same,half-life,"[4]; mouse, plasma, 30 mg/kg IP",1.66 h
same,concentration at 0.25 h,[4]; [6],7460 ng/mL
same,concentration at 0.5 h,[4]; [6],5240 ng/mL
same,concentration at 1 h,[4]; [6],3060 ng/mL
same,concentration at 2 h,[4]; [6],589 ng/mL
same,concentration at 4 h,[4]; [6],211 ng/mL
same,concentration at 8 h,"[4]; mouse, plasma, 30 mg/kg IP, 8 h, read-out: Concentration IP_Mean",46.2 ng/mL
same,MRT inf,"[4]; mouse, plasma, 30 mg/kg IP",1.27 h
same,AUC(0-inf),"[4]; mouse, plasma, 50 mg/kg PO",1660 ng·h/mL
same,AUC(0-t),"[4]; mouse, plasma, 50 mg/kg PO",1630 ng·h/mL
same,Cmax,"[4]; mouse, plasma, 50 mg/kg PO",605 ng/mL
same,Tmax,"[4]; mouse, plasma, 50 mg/kg PO",1 h
same,half-life,"[4]; mouse, plasma, 50 mg/kg PO",1.28 h
same,concentration at 0.25 h,[4]; [7],117 ng/mL
same,concentration at 0.5 h,[4]; [7],315 ng/mL
same,concentration at 1 h,[4]; [7],605 ng/mL
same,concentration at 2 h,[4]; [7],411 ng/mL
same,concentration at 4 h,[4]; [7],126 ng/mL
same,concentration at 8 h,"[4]; mouse, plasma, 50 mg/kg PO, 8 h, read-out: Concentration PO_Mean",15.8 ng/mL
same,MRT inf,"[4]; mouse, plasma, 50 mg/kg PO",2.3 h
same,Concentration IV_Mean,"[4]; plasma, 1 mg/kg IV, 8 h",BLOQ
same,clinical symptoms,"[4]; single dose 1 mg/kg IV, 50 mg/kg PO or 30 mg/kg IP, entire experiment",No abnormal clinical symptoms were observed
"Cc1n[nH]c2c1C(c1cc(C#C[C@H]3C[C@@H](NC(=O)OC(C)(C)C)C3)cc(CO)c1)(C(C)C)C(C#N)=C(N)O2 (some centres unmarked) [KDG-0388, tert-butyl N-[(1s,3s)-3-[2-(3-[6-amino-5-cyano-4-isopropyl-3-methyl-1H-pyrano[2,3-c]pyrazol-4-yl]-5-(hydroxymethyl)phenyl)ethynyl]cyclobutyl]carbamate]",half-life at 2 µM,[1],≥ 0.333 h
same,microsomal CLint at 2 µM,[1],≤ 70 µL/min/mg
same,IC50,[2],B″
same,IC50,[3],> 5 µM
